# No end group written: not given here.
# What was measured:
# [1] = test system: Histone H3 cleavage by serine proteases; experiment: PMA induced histone H3 cleavage in neutrophils (immunoblot) with serine protease inhibition; assay type: cell-based, human; details: preincubation 30 min
# Method: (§1) Lysates were resolved by SDS-PAGE and immunoblotted with N- and C-terminal antibodies to H3. GAPDH was used as a loading control. […] At 150 min the cells were fixed and stained for neutrophil elastase (NE), chromatin (using a H2A-H2B-DNA antibody PL2.3) and DNA using DAPI (4′,6-diamidino-2-phenylindole). NS: non-stimulated. Images were taken at 63× and the scale bar is 20 μm.
# For all experiments, unless indicated, neutrophils were cultured RPMI (GIBCO 32404014) supplemented with 10 mM HEPES and 0.1% (w/v) HSA, which had been preequilibrated in CO2 conditions for 1 h. Cells were routinely cultured at 37° C., 5% CO2 unless indicated. For all experiments, stimuli were added to cell reactions as 10× working stock solutions freshly diluted in RPMI. For inhibition experiments, a 10× inhibitor stock and appropriate vehicle controls, were added to the cells and preincubated for the times stated in the figure legends.
# To analyse proteins, lysates were prepared from stimulated or resting neutrophils. Cells were seeded in culture medium in 1.5 ml microcentrifuge tubes at 1×10^7 cells/ml with 5×10^6 cells per time point. After addition of the inhibitor or agonist, cells were gently mixed and incubated at 37° C. with gentle rotation. […]
# For routine protein analysis, samples were analysed by 1D SDS-PAGE and immunoblotted. […] Blotting efficacy was assessed by Ponceau S staining. […]
# [2] = test system: NET formation; experiment: NET formation by immunofluorescent confocal microscopy with serine protease inhibition; assay type: cell-based, human; details: preincubation, PMA 50 nM, 150 min
# Method: as §1
# For immunofluorescent imaging of purified cells, neutrophils/PBMCs were seeded in 24 well dishes containing glass coverslips, with 1×10^5 cells per well and incubated at 37° C. for 1 h allowing to adhere to the coverslip. At this stage, inhibitors and priming factors were included as indicated. Reactions were stopped by the addition of paraformaldehyde (2% [w/v]) for 20 min at RT or 4° C. overnight. After fixation, cells were washed and stained as previously described (Brinkmann et al 2012). Briefly, all steps were performed by floating inverted coverslips on drops of buffer on laboratory parafilm. Cells were permeabilised with PBS, pH 7.5, 0.5% (v/v) Triton X-100 for 3 min. For screening and quantification experiments, this permeabilization step was extended to 10 min. […]
# [3] = test system: 3D9 binding to NETs; experiment: Peptide competition assay; parameters: species or system human; details: 3D9 preincubated overnight with peptide; PMA 3 h neutrophils
# Method: NS: non-stimulated. Images were taken on an upright fluorescent microscope at 20×. Scale bars-50 μm (full field) and 10 μm (inset). • (B) Immunoblots of lysates prepared from neutrophils stimulated with PMA (50 nM) for the times indicated in the figure. […] Samples were serially diluted and immobilized on a high affinity ELISA plate according to DNA content (for NETs, chromatin and DNA) or protein content (for recombinant histone H3) as determined by PicoGreen and bicinchoninic acid assays respectively. Starting concentration was 1 μg/ml DNA or protein. […] Data is presented for dilution 200 ng/ml. REIRR indicates unconjugated branched immunising peptide control formed by SEQ ID NO 11 and SEQ ID NO 26. This peptide was coated at 20 ng/ml. […] (F, G) Neutrophils were seeded in 10 ml petri dishes and stimulated for 3 h with PMA. Before total cell lysis and immunoprecipitation, NETs were digested with benzonase to liberate histones and octamers for antibody binding. […] (F) Coomassie stained gel of proteins immunoprecipitated by 3D9 or isotype control and the corresponding silver stained gel. The predicted cleaved H3 and intact H3 bands are indicated. […]
# Neutrophils were seeded on coverslips in a 24 well dish (1×10^5 cells/well) and stimulated with PMA for 3 h and fixed with 2% PFA. […] Peptide competition was assessed visually by fluorescent microscopy.
competition of 3D9 staining of NETs [3],Compound,effect on H3 cleavage upon PMA stimulation [1],effect on NET formation [2]
–,"NCCc1ccc(S(=O)(=O)F)cc1 [AEBSF, 4-[2-aminoethyl] benzensulfonylfluoride]",inhibited H3 cleavage,inhibited NET formation and nuclear decondensation
could block 3D9 binding to NETs,"branched immunising peptide: branched peptide formed by REIRR (SEQ ID NO 11) and REIRRKC-NH2 (SEQ ID NO 12) (also: branched: C-terminus of chain 1 amide-linked to Lys6 side chain of chain 2, chain 2 conjugated to KLH via Cys thiol, lactam at chain B 6 to a chain's C-terminus; listed as Homo sapiens)",–,–
